Results on eight molecules are retold here after ChEMBL document CHEMBL1909046, “DrugMatrix in vitro pharmacology data”.

The structures appear in SMILES notation.

Data set [1] addresses T1, Alpha-2A adrenergic receptor (Homo sapiens, UniProt P08913).
T1 sequence (P08913 whole entry): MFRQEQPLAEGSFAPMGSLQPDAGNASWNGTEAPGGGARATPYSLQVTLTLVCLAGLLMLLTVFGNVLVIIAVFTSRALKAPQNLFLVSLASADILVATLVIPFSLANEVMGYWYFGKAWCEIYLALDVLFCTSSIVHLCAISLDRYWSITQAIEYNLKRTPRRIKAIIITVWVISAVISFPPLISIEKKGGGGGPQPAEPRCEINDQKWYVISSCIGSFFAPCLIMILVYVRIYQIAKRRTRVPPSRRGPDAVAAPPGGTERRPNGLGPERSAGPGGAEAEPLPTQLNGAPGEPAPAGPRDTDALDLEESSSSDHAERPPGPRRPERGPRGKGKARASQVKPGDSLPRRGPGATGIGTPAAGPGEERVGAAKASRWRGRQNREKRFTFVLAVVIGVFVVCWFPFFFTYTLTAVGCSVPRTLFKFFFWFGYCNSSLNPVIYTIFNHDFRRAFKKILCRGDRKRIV
In kind it is cell membranes, Sf9, Membrane.

The target in data set [2] is T2, Alpha-2C adrenergic receptor (Homo sapiens, UniProt P18825).
T2 sequence (P18825 whole entry): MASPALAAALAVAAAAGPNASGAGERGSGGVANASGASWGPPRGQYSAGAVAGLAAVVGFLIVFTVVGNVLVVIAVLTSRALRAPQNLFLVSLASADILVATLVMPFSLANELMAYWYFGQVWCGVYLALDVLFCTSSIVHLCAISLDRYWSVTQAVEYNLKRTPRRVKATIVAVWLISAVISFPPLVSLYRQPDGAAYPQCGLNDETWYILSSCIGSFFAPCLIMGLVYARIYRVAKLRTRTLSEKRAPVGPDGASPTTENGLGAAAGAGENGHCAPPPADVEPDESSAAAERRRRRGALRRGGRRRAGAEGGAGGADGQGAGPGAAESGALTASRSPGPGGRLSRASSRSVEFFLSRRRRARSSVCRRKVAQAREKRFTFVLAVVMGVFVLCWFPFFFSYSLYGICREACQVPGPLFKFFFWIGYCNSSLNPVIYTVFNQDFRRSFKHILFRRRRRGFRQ
The experiment in a line: DRUGMATRIX: Adrenergic Alpha-2C radioligand binding (ligand: [3H] MK-912). The following applies: sf9. In kind it is cell membranes, Sf9, Membrane.

The target of data set [3] is Beta-1 adrenergic receptor (Homo sapiens, UniProt P08588). Nature of the data set: DRUGMATRIX: Adrenergic beta1 radioligand binding (ligand: [125I] Cyanopindolol). The class given is cell membranes, CHO-K1, Membrane. The following applies: cho-k1; Not Active = under 50% inhibition at 10 µM.
Data set [4] deals with T3, Type-2 angiotensin II receptor (Homo sapiens, UniProt P50052).
T3 sequence (P50052 whole entry): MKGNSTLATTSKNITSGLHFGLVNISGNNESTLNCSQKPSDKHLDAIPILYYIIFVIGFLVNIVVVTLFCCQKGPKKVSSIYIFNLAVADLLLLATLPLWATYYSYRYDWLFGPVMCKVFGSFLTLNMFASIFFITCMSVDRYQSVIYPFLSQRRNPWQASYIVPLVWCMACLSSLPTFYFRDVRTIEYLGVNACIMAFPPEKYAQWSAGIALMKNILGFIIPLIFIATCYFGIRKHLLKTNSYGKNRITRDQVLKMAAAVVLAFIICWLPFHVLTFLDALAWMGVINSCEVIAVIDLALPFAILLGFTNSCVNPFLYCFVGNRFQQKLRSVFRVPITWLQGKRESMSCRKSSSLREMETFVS
In kind it is cell-based. The following applies: cho-k1.

The nature of data set [5]: DRUGMATRIX: Calcium Channel Type L, Phenylalkylamine radioligand binding (ligand: [3H] (-)-Desmethoxyverapamil (D-888)). In kind it is cell membranes, Rattus norvegicus, Wistar, Brain, Membrane. The following applies: Not Active = under 50% inhibition at 10 µM.
The nature of data set [6]: DRUGMATRIX: GABAA, Flunitrazepam, Central radioligand binding (ligand: [3H] Flunitrazepam). In kind it is cell membranes, Rattus norvegicus, Wistar, Brain, Membrane. The following applies: Not Active = under 50% inhibition at 10 µM.
Another data set addresses Insulin receptor (Rattus norvegicus, UniProt P15127). In kind it is cell membranes, Wistar, Liver, Membrane.
The target of data set [7] is T4, Neuropeptide Y receptor type 2 (Homo sapiens, UniProt P49146). Also: in other assays of this panel Not Active means under 50% inhibition at 10 µM.
T4 sequence (P49146 whole entry): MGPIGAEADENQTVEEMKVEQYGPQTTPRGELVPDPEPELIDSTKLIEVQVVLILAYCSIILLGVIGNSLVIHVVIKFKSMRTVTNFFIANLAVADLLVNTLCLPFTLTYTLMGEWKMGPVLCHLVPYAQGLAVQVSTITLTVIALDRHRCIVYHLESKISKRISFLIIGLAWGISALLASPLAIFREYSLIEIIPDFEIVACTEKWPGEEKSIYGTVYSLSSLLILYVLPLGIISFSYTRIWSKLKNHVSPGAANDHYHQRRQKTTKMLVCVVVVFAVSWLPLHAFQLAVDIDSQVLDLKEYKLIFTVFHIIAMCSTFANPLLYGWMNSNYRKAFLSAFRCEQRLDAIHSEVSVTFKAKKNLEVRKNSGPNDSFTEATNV
The class given is cell membranes, Membrane. The following applies: kan-ts.

Data set [8] has as its target Receptor tyrosine-protein kinase erbB-2 (Homo sapiens, UniProt P04626). The experiment in a line: biochemical. In kind it is cell-based, Insect cells.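 Also: inhibition of HER2 kinase enzyme activity, measured with Poly(Glu:Tyr) as the phosphorylation substrate; in other assays of this panel Not Active means under 50% inhibition at 10 µM.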
The target in data set [9] is 5-hydroxytryptamine receptor 1B (Rattus norvegicus, UniProt P28564). The class given is cell membranes, Wistar, Cerebral cortex, Membrane. Also: in other assays of this panel Not Active means under 50% inhibition at 10 µM.
For a further data set, the target named is T5, Adenosine receptor A1 (Homo sapiens, UniProt P30542).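 Also: radioligand binding assay at the adenosine A1 receptor, with DPCPX serving as the labelled ligand; in other assays of this panel Not Active means under 50% inhibition at 10 µM.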
T5 sequence (P30542 whole entry): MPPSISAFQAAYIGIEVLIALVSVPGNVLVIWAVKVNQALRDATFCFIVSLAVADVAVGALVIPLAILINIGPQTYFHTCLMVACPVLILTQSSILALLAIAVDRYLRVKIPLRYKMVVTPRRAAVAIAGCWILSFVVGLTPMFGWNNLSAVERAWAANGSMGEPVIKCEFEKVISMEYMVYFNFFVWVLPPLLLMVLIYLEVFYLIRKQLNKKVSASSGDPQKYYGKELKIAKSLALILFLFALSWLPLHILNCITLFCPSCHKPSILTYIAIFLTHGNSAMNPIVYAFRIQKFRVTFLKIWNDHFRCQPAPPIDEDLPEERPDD
In kind it is cell membranes, CHO, Membrane. The following applies: cho.

Data set [10] has as its target Voltage-gated inwardly rectifying potassium channel KCNH2 (Homo sapiens, UniProt Q12809). The following applies: hek293. Also: in other assays of this panel Not Active means under 50% inhibition at 10 µM.

Sequence of Insulin receptor (P15127 27-759 limits assumed): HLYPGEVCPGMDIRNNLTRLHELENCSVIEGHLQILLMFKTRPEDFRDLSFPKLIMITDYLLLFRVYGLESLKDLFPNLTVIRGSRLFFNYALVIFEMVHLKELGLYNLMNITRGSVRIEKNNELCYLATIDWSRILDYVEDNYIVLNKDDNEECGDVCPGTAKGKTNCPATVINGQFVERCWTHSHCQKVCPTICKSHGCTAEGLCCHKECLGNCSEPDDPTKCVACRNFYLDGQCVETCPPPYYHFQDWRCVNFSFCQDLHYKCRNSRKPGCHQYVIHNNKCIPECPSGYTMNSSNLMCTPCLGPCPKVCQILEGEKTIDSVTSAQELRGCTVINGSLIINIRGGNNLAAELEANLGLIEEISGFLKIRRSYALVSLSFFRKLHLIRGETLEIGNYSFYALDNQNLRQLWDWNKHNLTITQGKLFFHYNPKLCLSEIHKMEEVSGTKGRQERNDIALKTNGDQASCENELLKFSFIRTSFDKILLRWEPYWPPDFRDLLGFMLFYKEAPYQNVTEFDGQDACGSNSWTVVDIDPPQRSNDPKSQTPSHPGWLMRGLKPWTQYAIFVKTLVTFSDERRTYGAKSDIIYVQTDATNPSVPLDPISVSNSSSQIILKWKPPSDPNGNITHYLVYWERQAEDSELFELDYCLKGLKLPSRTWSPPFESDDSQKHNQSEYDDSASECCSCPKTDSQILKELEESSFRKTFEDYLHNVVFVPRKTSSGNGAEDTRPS
Sequence of Insulin receptor (P15127 764-1383 limits assumed): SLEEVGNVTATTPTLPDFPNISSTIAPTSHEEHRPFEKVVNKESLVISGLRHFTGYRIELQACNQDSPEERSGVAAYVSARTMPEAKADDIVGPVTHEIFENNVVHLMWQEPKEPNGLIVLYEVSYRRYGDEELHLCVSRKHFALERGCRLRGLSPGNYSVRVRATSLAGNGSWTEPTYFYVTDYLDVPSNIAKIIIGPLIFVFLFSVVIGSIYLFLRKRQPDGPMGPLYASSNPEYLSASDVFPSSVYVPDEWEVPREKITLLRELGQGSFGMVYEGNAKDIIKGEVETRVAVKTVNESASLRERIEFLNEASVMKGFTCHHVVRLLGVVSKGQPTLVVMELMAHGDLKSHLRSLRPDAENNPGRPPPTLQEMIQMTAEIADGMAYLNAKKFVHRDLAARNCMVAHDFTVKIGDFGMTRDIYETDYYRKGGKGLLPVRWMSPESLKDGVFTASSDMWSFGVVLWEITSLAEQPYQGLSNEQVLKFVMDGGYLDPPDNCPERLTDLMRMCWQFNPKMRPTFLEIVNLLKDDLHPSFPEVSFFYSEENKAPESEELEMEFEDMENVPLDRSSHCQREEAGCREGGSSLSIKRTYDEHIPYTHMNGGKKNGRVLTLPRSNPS
Sequence of Receptor tyrosine-protein kinase erbB-2 (P04626 whole entry): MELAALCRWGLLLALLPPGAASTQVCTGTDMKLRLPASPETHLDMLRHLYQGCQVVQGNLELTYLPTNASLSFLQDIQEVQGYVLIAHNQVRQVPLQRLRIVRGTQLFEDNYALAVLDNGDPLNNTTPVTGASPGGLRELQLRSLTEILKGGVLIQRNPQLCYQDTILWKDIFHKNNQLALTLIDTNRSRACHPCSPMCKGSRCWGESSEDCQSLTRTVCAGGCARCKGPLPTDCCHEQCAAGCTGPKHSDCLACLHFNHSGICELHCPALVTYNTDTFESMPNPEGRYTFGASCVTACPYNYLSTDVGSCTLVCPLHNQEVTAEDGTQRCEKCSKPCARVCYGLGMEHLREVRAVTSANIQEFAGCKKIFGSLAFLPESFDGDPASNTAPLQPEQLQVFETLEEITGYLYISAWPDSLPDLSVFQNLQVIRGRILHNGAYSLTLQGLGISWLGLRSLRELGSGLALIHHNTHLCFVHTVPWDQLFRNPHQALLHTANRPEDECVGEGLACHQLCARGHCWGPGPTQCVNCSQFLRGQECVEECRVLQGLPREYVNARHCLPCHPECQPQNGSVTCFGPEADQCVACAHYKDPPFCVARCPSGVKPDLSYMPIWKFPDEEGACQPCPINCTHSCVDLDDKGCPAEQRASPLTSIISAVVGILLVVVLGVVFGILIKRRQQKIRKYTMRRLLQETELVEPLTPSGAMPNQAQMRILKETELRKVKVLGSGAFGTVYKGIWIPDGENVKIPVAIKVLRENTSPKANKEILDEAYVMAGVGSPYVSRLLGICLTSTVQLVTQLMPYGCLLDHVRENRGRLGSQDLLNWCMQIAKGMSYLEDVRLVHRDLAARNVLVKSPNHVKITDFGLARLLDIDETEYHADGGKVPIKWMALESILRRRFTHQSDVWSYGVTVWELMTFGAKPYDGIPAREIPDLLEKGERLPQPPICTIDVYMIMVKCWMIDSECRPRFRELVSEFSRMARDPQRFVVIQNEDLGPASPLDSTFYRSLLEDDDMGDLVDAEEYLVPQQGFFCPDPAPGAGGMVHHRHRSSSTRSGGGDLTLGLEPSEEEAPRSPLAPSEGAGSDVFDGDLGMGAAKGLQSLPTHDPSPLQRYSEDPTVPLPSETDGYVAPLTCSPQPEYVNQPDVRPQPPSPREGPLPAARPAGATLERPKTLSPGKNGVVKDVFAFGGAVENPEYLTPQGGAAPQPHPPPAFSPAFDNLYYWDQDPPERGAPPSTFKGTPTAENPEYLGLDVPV
Sequence of Voltage-gated inwardly rectifying potassium channel KCNH2 (Q12809 whole entry): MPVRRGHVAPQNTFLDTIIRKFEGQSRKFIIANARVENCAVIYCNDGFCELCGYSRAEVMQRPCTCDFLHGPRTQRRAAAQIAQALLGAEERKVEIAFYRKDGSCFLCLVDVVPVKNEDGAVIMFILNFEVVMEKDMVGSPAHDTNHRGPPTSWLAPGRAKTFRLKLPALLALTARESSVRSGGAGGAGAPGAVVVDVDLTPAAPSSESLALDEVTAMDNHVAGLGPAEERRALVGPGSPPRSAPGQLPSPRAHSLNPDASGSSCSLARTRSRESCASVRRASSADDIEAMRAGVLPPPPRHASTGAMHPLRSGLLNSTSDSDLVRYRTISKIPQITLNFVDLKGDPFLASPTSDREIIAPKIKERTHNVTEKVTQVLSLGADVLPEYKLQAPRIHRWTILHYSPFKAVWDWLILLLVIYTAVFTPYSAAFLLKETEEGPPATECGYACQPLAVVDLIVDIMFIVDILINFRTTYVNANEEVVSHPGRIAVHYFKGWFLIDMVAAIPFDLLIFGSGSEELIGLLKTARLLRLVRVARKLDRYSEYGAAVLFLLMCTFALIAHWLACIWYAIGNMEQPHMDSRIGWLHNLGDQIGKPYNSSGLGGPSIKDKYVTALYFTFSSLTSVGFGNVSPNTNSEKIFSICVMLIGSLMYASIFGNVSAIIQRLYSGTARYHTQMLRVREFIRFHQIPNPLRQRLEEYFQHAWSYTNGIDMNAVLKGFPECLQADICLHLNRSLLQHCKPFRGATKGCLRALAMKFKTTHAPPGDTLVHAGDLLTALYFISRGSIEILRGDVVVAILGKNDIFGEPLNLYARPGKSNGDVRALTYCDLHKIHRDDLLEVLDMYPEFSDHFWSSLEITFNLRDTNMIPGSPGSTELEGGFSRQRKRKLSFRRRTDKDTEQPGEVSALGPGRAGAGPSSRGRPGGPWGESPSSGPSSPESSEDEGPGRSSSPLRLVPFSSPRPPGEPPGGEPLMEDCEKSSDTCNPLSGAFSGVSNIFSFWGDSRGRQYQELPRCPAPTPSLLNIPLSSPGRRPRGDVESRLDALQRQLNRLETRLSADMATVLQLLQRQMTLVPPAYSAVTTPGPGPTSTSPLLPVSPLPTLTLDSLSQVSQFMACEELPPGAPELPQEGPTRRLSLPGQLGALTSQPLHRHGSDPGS
Sequence of Beta-1 adrenergic receptor (P08588 whole entry): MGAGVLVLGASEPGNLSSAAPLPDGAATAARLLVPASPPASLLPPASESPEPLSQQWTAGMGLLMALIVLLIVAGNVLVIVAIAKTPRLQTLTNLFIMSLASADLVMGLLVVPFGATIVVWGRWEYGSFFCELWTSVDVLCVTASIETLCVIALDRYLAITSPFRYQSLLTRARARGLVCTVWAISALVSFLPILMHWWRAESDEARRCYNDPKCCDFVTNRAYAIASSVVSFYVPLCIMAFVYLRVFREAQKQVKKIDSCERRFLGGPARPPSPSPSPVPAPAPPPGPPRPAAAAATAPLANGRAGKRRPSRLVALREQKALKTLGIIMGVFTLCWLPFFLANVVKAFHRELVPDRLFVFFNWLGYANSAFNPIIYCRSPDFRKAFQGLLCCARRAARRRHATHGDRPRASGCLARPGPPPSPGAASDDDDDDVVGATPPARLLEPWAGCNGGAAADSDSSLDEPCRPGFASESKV
Sequence of 5-hydroxytryptamine receptor 1B (P28564 whole entry): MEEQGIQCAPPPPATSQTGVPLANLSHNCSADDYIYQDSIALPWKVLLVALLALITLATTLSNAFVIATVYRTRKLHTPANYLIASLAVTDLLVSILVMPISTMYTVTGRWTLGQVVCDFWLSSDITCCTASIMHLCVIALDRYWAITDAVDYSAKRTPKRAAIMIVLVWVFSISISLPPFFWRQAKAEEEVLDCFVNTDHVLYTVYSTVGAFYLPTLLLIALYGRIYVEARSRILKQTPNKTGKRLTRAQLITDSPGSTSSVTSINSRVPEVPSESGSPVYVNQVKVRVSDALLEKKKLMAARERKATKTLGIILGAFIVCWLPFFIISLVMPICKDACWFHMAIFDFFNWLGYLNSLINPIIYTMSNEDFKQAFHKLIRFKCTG

In the case of `COc1ccc2cc(CC(=O)O)ccc2c1`, the IC50 entry in data set [1] (sf9), in data set [2], in data set [3], in data set [4], in data set [5] and in [6] was “Not Active” each time. The IC50 result (against Insulin receptor; in [7]; in data set [8] (insect cells); in [9]; against Adenosine receptor A1; in [10]) was “Not Active” each time. Moreover, the Ki result in [5], in data set [6] and in [10] was “Not Active” throughout.
Regarding `c1ccc2c(c1)cc1ccc3cccc4ccc2c1c34`, the IC50 result in [1] (sf9), in data set [2], in data set [3], in [4], in [5] and in data set [6] was “Not Active” each time. Besides, the IC50 entry was “Not Active” on Insulin receptor; “Not Active” in [7]; 41.5 µM in data set [8] (read-out: IC50); “Not Active” in data set [9]; “Not Active” against Adenosine receptor A1; “Not Active” in data set [10]. Also, the Ki result in data set [5], in data set [6] and in [10] was “Not Active” in each case.
On to `CC=CC(=O)N(CC)c1ccccc1C`, for which the IC50 result in data set [1] (sf9), in data set [2], in data set [3], in data set [4], in [5] and in data set [6] was “Not Active” in each case. The IC50 entry (against Insulin receptor; in data set [7]; in data set [8] (insect cells); in [9]; against Adenosine receptor A1; in [10]) was “Not Active” throughout. Also, the Ki entry in data set [5], in data set [6] and in data set [10] was “Not Active” throughout.
As for `C=C1C(=O)O[C@@H]2C3O[C@]3(C)CC/C=C(\C)CC[C@@H]12` (stereo partly specified), the IC50 result in data set [1] (sf9), in [2], in [3], in [4], in data set [5] and in [6] was “Not Active” each time. Besides, the IC50 entry (against Insulin receptor; in [7]; in data set [8] (insect cells); in data set [9]; at Adenosine receptor A1; in data set [10]) was “Not Active” each time. For the same molecule, the Ki result in [5], in [6] and in [10] was “Not Active” throughout.
As for `CC(/C=C1\SC(=S)N(CC(=O)O)C1=O)=C\c1ccccc1`, the IC50 entry in data set [1] (sf9), in [2], in [3], in data set [4], in data set [5] and in data set [6] was “Not Active” each time. The half-maximal inhibitory concentration (IC50) result (against Insulin receptor; in data set [7]; in data set [8] (insect cells); in [9]; at Adenosine receptor A1; in [10]) was “Not Active” throughout. For the same molecule, the Ki result in data set [5], in data set [6] and in data set [10] was “Not Active” each time.
Consider `CCCCCCCCCc1ccc(O)cc1` [4-NONYLPHENOL], for which the IC50 in [1] (read-out: IC50) was 6.78 µM; in [2], “Not Active”; in data set [3], “Not Active”; in [4], “Not Active”; in data set [5], “Not Active”; in data set [6], “Not Active”. The IC50 result (against Insulin receptor; in data set [7]; in data set [8] (insect cells); in [9]; on Adenosine receptor A1; in [10]) was “Not Active” throughout. Also, the Ki is 2.54 µM in data set [1] (read-out: Ki), “Not Active” in data set [5], “Not Active” in data set [6] and “Not Active” in data set [10].
With `COc1ccc2c(c1)c(CC(=O)OCC(=O)O)c(C)n2C(=O)c1ccc(Cl)cc1` [ACEMETACIN], the IC50 entry in data set [1] (sf9), in data set [2], in [3], in data set [4], in [5] and in [6] was “Not Active” throughout. In addition, the IC50 entry (on Insulin receptor; in data set [7]; in [8] (insect cells); in data set [9]; against Adenosine receptor A1; in [10]) was “Not Active” throughout. Moreover, the Ki result in data set [5], in data set [6] and in data set [10] was “Not Active” in each case.
Regarding `CCCSc1ccc2nc(NC(=O)OC)[nH]c2c1` [ALBENDAZOLE], the IC50 entry in [1] (sf9), in data set [2], in data set [3], in data set [4], in data set [5] and in [6] was “Not Active” in each case. For the same molecule, the IC50 entry (on Insulin receptor; in data set [7]; in data set [8] (insect cells); in data set [9]; against Adenosine receptor A1; in [10]) was “Not Active” in each case. The Ki result in [5], in [6] and in data set [10] was “Not Active” each time.

As a reminder, the IC50 is the concentration needed to halve the response being measured. One may read the Ki as the dissociation constant of the complex between target and ligand, obtained from inhibition or displacement.
